# Tests used:
# [1] = system: U2OS cells stably expressing GFP-LC3; assay: Autophagy in cultured cells: GFP-LC3 puncta formation and LC3 lipidation with or without bafilomycin A1; assay type: cell-based, human; settings: for autophagic flux (GFP-LC3 puncta formation, LC3 lipidation): cells kept in rich medium, presence and absence of BafA1; for statin-induced autophagy upon supplementation: 12 hours, Simvastatin and Mevastatin
# Method: U2OS, HeLa or H4 cells stably expressing GFP-LC3 were seeded in 96-well imaging plates (BD Falcon, Sparks, USA) 24 h before stimulation. Cells were treated with the indicated agents for 4 h. […] Images were analyzed for the presence of GFP-LC3 puncta in the cytoplasm by means of the BD Attovision software (BD Imaging Systems). Cell surfaces were segmented and divided into cytoplasmic and nuclear regions according to manufacturer standard proceedings. RB 2×2 and Marr-Hildreth algorithms were used to recognize cytoplasmic GFP-LC3 positive dots. Statistical analyses were implemented on the R software (http://www.r-project.org/). For quantitative analyses of protein acetylation, cell surfaces were segmented into cytoplasm and nuclei regions, and staining intensity of each individual cell was measured for statistical analysis.
# Membranes were then sliced in different parts according to the molecular weight of the protein of interest to allow simultaneous detection of different antigens within the same experiment. Unspecific binding sites were saturated by incubating membranes for 1 h in 0.05% Tween 20 (v:v in TBS) supplemented with 5% non-fat powdered milk (w:v in TBS), followed by the overnight incubation with primary antibodies specific for acetylated-lysine, LC3, phospho-AMPK (Thr172), AMPK, phospho-ribosomal protein S6 kinase (Thr421/Ser424), ribosomal protein S6 kinase, or STQM/p62 (Santa Cruz Biotechnology). Development was performed with appropriate horseradish peroxidase (HRP)-labeled secondary antibodies (Southern Biotech, Birmingham, USA) plus the SuperSignal West Pico chemoluminescent substrate (Thermo Scientific-Pierce). An anti-glyceraldehyde-3-phosphate dehydrogenase antibody (Chemicon International, Temecula, USA) was used to control equal loading of lanes.
# For immunoblotting, protein extracts obtained by cellular lysis via RIPA buffer were run on 4-12% Bis-Tris acrylamide (Invitrogen) and electrotransferred to […] PVDF membranes (Biorad, USA). Unspecific binding sites were saturated by incubating membranes for 1 h in 0.05% Tween 20 (v:v in TBS) supplemented with 5% non-fat powdered milk (w:v in TBS), followed by an overnight incubation with primary antibodies specific for, LC3, phospho-AMPK (Thr172), AMPK, phosphor-ACC (Ser79), ACC, phospho-ribosomal protein S6 kinase (Thr421/Ser424), ribosomal protein S6 kinase, or SQSTM/p62 (Abnova). Membranes were opportunely cut in order to allow simultaneous detection of different molecular weight proteins. Development was performed with horseradish peroxidase (HRP)-labeled secondary antibodies (Southern Biotech, Birmingham, USA) plus the SuperSignal West Pico chemo luminescent substrate (Thermo Scientific-Pierce). An anti-glyceraldehyde-3-phosphate dehydrogenase antibody (Abcam) and anti-Actin antibody (Abcam) were used to ensure equal loading of lanes. Quantification was performed by densitometry by means of Image J software.
# U2OS and H4 cells stably expressing GFP-LC3 were seeded in 96-well or 384-well imaging plates (BD Falcon, Sparks, USA). 24 h before stimulation, ells were treated with the indicated agents for 6 hours in absence of lysososomal ATPase inhibitors and for 3 hours in presence of Bafilomycin A1. […] Images were analyzed for the detection of GFP-LC3 puncta in the cytoplasm by means of the BD Attovision software (BD Imaging Systems. Cellular regions of interest, cytoplasm and nucleus, were defined and segmented according to standard proceedings. RB 2×2 and Marr-Hildreth algorithms were employed to allow the detection of GFP LC3 puncta. Statistical analyses were conducted using the R and Prism softwares (http://www.r-project.org/). For quantitative analyses of protein acetylation, cell surfaces were segmented intocytoplasmic and nucleic regions, and staining intensity of each individual cell was measured for statistical analysis.
# [2] = system: AcCoA levels; assay: Targeted analysis of AcCoA levels in cultured cells (HPLC-MS); assay type: cell-based, human; settings: cells kept in rich medium
# Method: Cells were trypsinized, pelleted at 1000 rpm for 4 min, washed with PBS and pelleted again at 1000 rpm for 4 min. Cells were then resuspended in 5 ml of ice-cold hyposmotic buffer and keep on ice for 5 min. Cells were broken to release nuclei using a pre-chilled Dounce homogenizer (20 strokes with a tight pestle) and then were then centrifuged at 228 g.
# For in vitro experiments, cell pellets were resuspended in 300 μL of water with HEPES and EDTA (pH 7.4) at 1 mM containing internal standard acetylcoenzyme A (2-C13) at 1 mg/L, vortexed and heated at 100° C. for 1 min. Samples were incubated in liquid nitrogen for 1 min and thawed at room temperature two times. They were let for 1 h at −20° C. and centrifuged at 4° C. during 15 min at 13,000 g. Supernatants were transferred in HPLC vials and injected in HPLC/MS or kept at −80° C. until injection. For in vivo experiments, frozen tissues were placed in ice-cold homogenization tubes containing ceramic beads. Five μL of ice-cold methanol/water (80/20; v/v) were added for 1 mg of tissue. Tissues were homogenized two times for 20 s at 5,500 rpm using Precellys 24 tissue homogenator (Bertin Technologies, Montigny-le-Bretonneux, France). Samples were placed 10 min on ice. Next they were centrifuged at 4° C. during 15 min at 13,000 g. Supernatants were transferred in HPLC vials and injected in HPLC-MS system or kept at −80° C. until injection.
# Targeted analyses were performed on Rapid Resolution Liquid Chromatography (RRLC) 1200SL system (Agilent Technologies, Waldbronn, Germany) coupled to a Triple Quadruple QQQ 6410 mass spectrometer (Agilent Technologies). RRLC analysis was done on 150×2.1 mm, 3.5 μm Eclipse Plus SB-Aq column with a pre-column 30 mm×2.1 mm 3.5 μm Eclipse plus (Agilent Technologies) with water containing 10 mmol/L of ammonium acetate and 0.01% of acetic acid in channel A and acetonitrile in channel B in gradient mode at a flow rate of 0.3 mL·min^−1: t=0 min 2% B; t=9 min 95% B; t=11 min 95% B; re-equilibration time of 3 min. Mass spectrometer analysis was done in positive electrospray ionization mode at +4 kV on the QQQ system operating in MRM mode. MRM transitions were optimized with standard of AcCoA and AcCoA A 2-C^13 with direct infusion. Two transitions were recorded for each compound; • AcCoA 810>303 CE (collision energy) 28V; fragmentor 180V • 810>428 CE 20V • AcCoA 2-C13 812>305 CE 28V; fragmentor 180V • 812>428 CE 24V […]
# [3] = system: MCA205 tumor; assay: Growth of transplantable tumors with chemotherapy; assay type: in vivo, mice; settings: for tumor growth, combined with MTX: immunocompetent wild type mice, agent given before and with mitoxanthrone
# Method: C57BL/6 mice (Charles River Laboratory, Lentilly, France) were bred and maintained according to both the FELASA and the Animal Experimental Ethics Committee Guidelines (Val de Marne, France). Mice were housed in a temperature-controlled environment with 12 h light/dark cycles and received food and water ad libitum. For HC-related experiments, mice were injected intraperitoneally with a single 100 mg/kg dose and 6 h later were sacrificed and tissues were immediately frozen in liquid nitrogen. For DCA- and DMKG-related experiments, mice were subjected to 24 h starvation and injected intraperitoneally each 8 h with a 100 mg/kg of either DCA or DMKG solution prepared in PBS. After 24 h of starvation, mice were sacrificed and tissues were immediately frozen in liquid nitrogen after extraction and homogenized two cycles for 20 s at 5,500 rpm using Precellys 24 tissue homogenator (Bertin Technologies, Montigny-le-Bretonneux, France) in a 20 mM Tris buffer (pH 7.4) containing 150 mM NaCl, 1% Triton X-100, 10 mM EDTA and Complete® protease inhibitor cocktail (Roche Applied Science). Tissue extracts were then centrifuged at 12,000 g at 4° C. and supernatants were collected. Protein concentration in the supernatants was evaluated by the bicinchoninic acid technique (BCA protein assay kit, Pierce Biotechnology, Rockford, Ill.). For hydroxycitrate-related weight-loss experiments, autophagy-deficient Atg4b^−/− mice were used. Atg4b^−/− mice have been previously described (Mariño et al., 2010). For HC-, spermidine-, and resveratrol-related experiments (tumour growth) mice were intraperitoneally injected with respectively 100 mg/kg, 50 mg/kg and 100 mg/kg doses at day 8 and day 9. At day 9, mice were intraperitoneally injected with 2 mg/kg single dose of Mitoxanthrone. For starvation related experiment (tumour growth) mice were treated as previously described (Fabrizio et. al., 2010).
# Six weeks old female C57BL/6, Balb/c and nude athymic mice (Harlan Laboratory, Gannat, France) were bred and maintained according to both the FELASA and the Animal Experimental Inserm Ethics Committee Guidelines (project: 2012-69). Mice were housed in a temperature-controlled environment with 12 h light/dark cycles and received food and water ad libitum. For tumor growth experiments, procedures adopted are described as follows: 3×10^5 tumor cells were subcutaneously inoculated; when tumors became palpable (day −1 before chemotherapy), mice were first intraperitoneally injected with 100 mg/kg Potassium Hydroxycitrate, 10 mg/kg Acetylsalicylic Acid, 30 mg/kg SB204990, 30 mg/kg c646, 5 mg/kg Rapamycin, 25 mg/kg Resveratrol, 50 mg/kg Spermidine. At day 0, mice were intraperitoneally injected with the abovementioned compounds and with 5.17 mg/Kg Mitoxanthrone or 5 mg/kg Oxaliplatin. Tumor size was measured every two days. For starvation experiments, mice underwent 48 hour fasting followed by intreperitoneal injection of chemotherapeutics. For autophagy induction study, 6 hours after CRMs administration, mice were sacrificed and tissues were snap-frozen in liquid nitrogen after extraction and homogenized two cycles for 20 s at 5,500 rpm using Precellys 24 tissue homogenator (Bertin Technologies, Montigny-le-Bretonneux, France) in a 20 mM Tris buffer (pH 7.4) containing 150 mM NaCl, 1% Triton X-100, 10 mM EDTA and Complete® protease inhibitor cocktail (Roche Applied Science, Penzberg, Germany). Tissue extracts were then centrifuged at 12,000 g at 4° C. and supernatants were collected. Protein concentration in the supernatants was evaluated by the bicinchoninic acid technique (BCA protein assay kit, Pierce Biotechnology, Rockford, US.
smiles,measurement,setting,value
"CCCCCCCCCCCCCCCc1cccc(O)c1C(=O)O [anacardic acid, 6-pentadecylsalicylic acid]","autophagic flux (GFP-LC3 puncta formation, LC3 lipidation)",[1],marked increase in GFP-LC3 puncta
"C1CCC(C(CC2CCCCN2)C2CCCCC2)CC1 (centres unmarked) [PHX, perhexiline]",AcCoA levels,[2],reduced AcCoA cellular levels
same,"autophagic flux (GFP-LC3 puncta formation, LC3 lipidation)",[1],induced signs of autophagy
COc1cc(/C=C/C(=O)CC(=O)/C=C/c2ccc(O)c(OC)c2)ccc1O [curcumin],"autophagic flux (GFP-LC3 puncta formation, LC3 lipidation)",[1],marked increase in GFP-LC3 puncta
"O=C(O)C[C@]1(O)C[C@H](CCCCCCc2ccc(Cl)cc2Cl)OC1=O (relative stereo) [SB-204990, (3R,5S)-rel-5-[6-(2,4-Dichlorophenyl)hexyl]tetrahydro-3-hydroxy-2-oxo-3-furanacetic acid]","tumor growth, combined with MTX",[3],HC could be replaced
same,"tumor growth, combined with MTX",[3]; listed as SB204990,can enhance chemotherapy efficacy
same,"tumor growth, combined with MTX, immunodeficient mice",[3]; nu/nu (nude athymic) mice,failed
same,"autophagic flux (GFP-LC3 puncta formation, LC3 lipidation)",[1],stimulated autophagic flux in cultured cancer cells
same,"autophagic flux (GFP-LC3 puncta formation, LC3 lipidation)",[1]; listed as SB204990,induce autophagic flux
"COc1ccc(-c2ccccc2)cc1NS(=O)(=O)c1cc(Cl)cc(Cl)c1O [BMS-303141, 3 5-Dichloro-2-hydroxy-N-(4-methoxy[1,1′-biphenyl]-3-yl)-benzenesulfonamide]","autophagic flux (GFP-LC3 puncta formation, LC3 lipidation)",[1],stimulated autophagic flux in cultured cancer cells
same,"autophagic flux (GFP-LC3 puncta formation, LC3 lipidation)",[1]; listed as BMS303141,induce autophagic flux
CC(O)(CCO)CC(=O)O (centres unmarked) [mevalonate],statin-induced autophagy upon supplementation,[1],only suppresses statin-induced autophagy
same,statin-induced autophagy upon supplementation,[1]; listed as Mevalonate,reverts statins-induced
CC1COC(=O)C1 (centres unmarked) [3-methylbutyrolactone],"autophagic flux (GFP-LC3 puncta formation, LC3 lipidation)",[1],marked increase in GFP-LC3 puncta
